Experimental data: the supplement of paper PMC3493320

Test system: NCI-H295R
Test: IC50 (antiproliferative, ATP content)
Settings: 48 h
Procedure, shortened: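 Cell viability of adrenocortical carcinoma cells was assessed as ATP by CellTiter-Glo luminescence. Cells at 1500 per well in 1536-well plates, in serum-free DMEM with ITS, received compounds by pin transfer at 8 final concentrations (0.6 nM–46 µM) after overnight culture and were then held 48 h at 37 °C, 5% CO2. IC50 was calculated by logistic fitting against vehicle and positive-control wells, compounds with no concentration response being recorded as above the top dose.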

IC50 | Structure (SMILES)
> 46 µM | CC(C)(C)C(=O)OCOC(=O)[C@@H]1N2C(=O)[C@@H](NC(=O)[C@H](N)c3ccccc3)[C@H]2SC1(C)C
> 46 µM | CCN1CCCC1=O
> 46 µM | C[C@@H](N)C(=O)O
> 46 µM | CCCCO
> 46 µM | ClC1=CC=C(\C3=C2/CCNCC2)C(CCC4=C3N=CC=C4)=C1
> 46 µM | Cc1cccc(C)c1NC(=O)C(C)N.Cl (configuration not stated)
> 46 µM | C=CCSSSCC=C
> 46 µM | CN[C@@H]1[C@H](O)[C@H](NC)[C@H]2O[C@@]3(O)C(=O)C[C@@H](C)O[C@H]3O[C@@H]2[C@H]1O.Cl.Cl
> 46 µM | COc1ccc(C(=O)CCC(=O)O)c2ccccc12
> 46 µM | OCc1ccccc1
> 46 µM | CC1CC(O)CC(C)(C)C1 (configuration not stated)
> 46 µM | CN1CCOC(c2ccccc2)c2ccccc2C1.Cl (configuration not stated)
> 46 µM | OCC(=O)[C@@]3(O)CC[C@H]2[C@@H]4CC\C1=C\C(=O)CC[C@]1(C)[C@H]4C(=O)C[C@@]23C
> 46 µM | Cc1cccc(C)c1NC(=O)c1ccccc1C(=O)O
> 46 µM | C/C=C/C[C@@H](C)[C@@H](O)[C@H]1C(=O)N[C@@H](CC)C(=O)N(C)CC(=O)N(C)[C@@H](CC(C)C)C(=O)N[C@@H](C(C)C)C(=O)N(C)[C@@H](CC(C)C)C(=O)N[C@@H](C)C(=O)N[C@H](C)C(=O)N(C)[C@@H](CC(C)C)C(=O)N(C)[C@@H](CC(C)C)C(=O)N(C)[C@@H](C(C)C)C(=O)N1C
> 46 µM | Cc1ncc(C[n+]2csc(CCOP(=O)(O)OP(=O)(O)O)c2C)c(N)n1.[Cl-]
> 46 µM | CCCCC1(COC(=O)CCC(=O)O)C(=O)N(c2ccccc2)N(c2ccccc2)C1=O
> 46 µM | CCCc1ncc(C[n+]2ccccc2C)c(N)n1.Cl.[Cl-]
> 46 µM | O=C1NC(=O)C(c2ccccc2)(c2ccccc2)N1
> 46 µM | N=C(N)N/N=C1/C=C/C(C=C1)=N\NC(N)=S
> 46 µM | O=C(O)Cc1cn(-c2ccccc2)nc1-c1ccc(Cl)cc1
> 46 µM | COc1cc2c(cc1OC)[C@@H](Cc1cc(OC)c(OC)c(OC)c1)[N+](C)(CCCOC(=O)CC/C=C/CCC(=O)OCCC[N+]1(C)CCc3cc(OC)c(OC)cc3[C@H]1Cc1cc(OC)c(OC)c(OC)c1)CC2.[Cl-].[Cl-] (some centres not stated)
> 46 µM | O=C1[C@@]([C@](CC5)(C)[C@]4([H])C([C@H]5O[C@@H]3[C@H](O[C@H]7[C@H](O)[C@@H](O)[C@H](O)[C@@H]([C@](O)=O)O7)[C@@H](O)[C@H](O)[C@@H]([C@@](O)=O)O3)(C)C)([H])[C@](CC4)(C)[C@@]2(C)C([C@]([C@@]6(C)CC2)([H])C[C@@](CC6)(C)[C@@](O)=O)=C1

IC50 | Structure (SMILES)
> 46 µM | CC(C)(C)CC(C)(C)c1ccc(OCCO)cc1
> 46 µM | O=[C@@](N\C(C([O-])=O)=C/CCCCSC[C@H](N)C(O)=O)[C@@H](C1)C1(C)C.[Na+]
> 46 µM | N#Cc1ccc(C(c2ccc(C#N)cc2)n2cncn2)cc1
> 46 µM | COc1ccc(C(=O)/C(Br)=C\C(=O)O)cc1
> 46 µM | CN(C)CCCN1c2ccccc2Sc2ccc(C(F)(F)F)cc21.Cl
> 46 µM | Cl.O=C(COc1ccc(Cl)cc1)N1CCN(Cc2ccc3c(c2)OCO3)CC1
> 46 µM | c1ccc2ccccc2c1
> 46 µM | C#C[C@]1(O)CC[C@H]2[C@@H]3CCC4=CC(=O)CC[C@@H]4[C@H]3CC[C@@]21C
> 46 µM | NC[C@H]1O[C@H](O[C@H]2[C@H](O)[C@@H](O[C@H]3O[C@H](CO)[C@@H](O)[C@H](N)[C@H]3O)[C@H](N)C[C@@H]2N)[C@H](N)C[C@@H]1O
> 46 µM | CN1CC(=O)N=C1NC(=O)Nc1cccc(Cl)c1
> 46 µM | COCCCC/C(=N\OCCN)c1ccc(C(F)(F)F)cc1
> 46 µM | CN1CCN2c3ncccc3Cc3ccccc3C2C1 (configuration not stated)
> 46 µM | CCS(=O)(=O)CCn1c([N+](=O)[O-])cnc1C
> 46 µM | COc1ccc2nc(NC(=O)Nc3ccccc3)sc2c1
> 46 µM | O=C([O-])c1ccc(NC(=O)[C@H](Cc2ccc(O)cc2)NC(=O)c2ccccc2)cc1.[Na+]
> 46 µM | O=C(O)CCNC(=O)c1ccc(/N=N/c2ccc(O)c(C(=O)O)c2)cc1
> 46 µM | O=S(=O)([O-])CCCS(=O)(=O)[O-].[Na+].[Na+]
> 46 µM | C=CC1=C(C(=O)O)N2C(=O)[C@@H](NC(=O)C(=NOCC(=O)O)c3csc(N)n3)[C@H]2SC1
> 46 µM | Cn1cc(NC(=O)c2cc(NC(=O)c3cc(NC=O)cn3C)cn2C)cc1C(=O)NCCC(=N)N
> 46 µM | O=C1C[C@@H]([C@](N[C@@H](CC3=CNC=N3)C(N2[C@]([H])(C(N)=O)CCC2)=O)=O)NC(N1C)=O
> 46 µM | NCc1ccccc1Sc1ccccc1CO
> 46 µM | Cl.O=S(=O)(c1cccc2cnccc12)N1CCCNCC1
> 46 µM | CN1[C@@H](CC(=O)c2ccccc2)CCC[C@H]1C[C@H](O)c1ccccc1

IC50 | Structure (SMILES)
> 46 µM | CCOC(=O)c1ccc(O)cc1
> 46 µM | CC(CN1c2ccccc2Sc2cccnc21)N(C)C.Cl (configuration not stated)
> 46 µM | CC(=O)OC[C@H]2O[C@@H](N1\N=C/C(=O)NC1=O)[C@H](OC(C)=O)[C@@H]2OC(C)=O
> 46 µM | O=C([O-])[C@H](O)[C@@H](O)[C@H](O)[C@H](O)CO.O=C([O-])[C@H](O)[C@@H](O)[C@H](O)[C@H](O)CO.[Ba+2]
> 46 µM | O=C([C@H](C)CS)N(CCC1)[C@@H]1[C@@](O)=O
> 46 µM | F[C@]1([C@](C[C@@H]4F)([H])[C@@]3([H])[C@]([C@@]([C@H](C)C3)(O)[C@@](CO)=O)(C)C[C@@H]1O)[C@](C=C2Cl)(C)C4=CC2=O.O
> 46 µM | C[C@@H]1CN(c2c(F)c(F)c3c(=O)c(C(=O)O)cn(C4CC4)c3c2F)C[C@H](C)N1
> 46 µM | C=C[C@]1(C)C[C@@H](OC(=O)CSC(C)(C)CNC(=O)[C@H](N)C(C)C)[C@]2(C)[C@H](C)CC[C@]3(CCC(=O)[C@H]32)[C@@H](C)[C@@H]1O
> 46 µM | O=C(O)CP(=O)(O)O
> 46 µM | CC(C)(Sc1cc(C(C)(C)C)c(O)c(C(C)(C)C)c1)Sc1cc(C(C)(C)C)c(O)c(C(C)(C)C)c1
> 46 µM | CCCOC(=O)c1ccc(N)cc1
> 46 µM | CC(O)CN(CCN(CC(C)O)CC(C)O)CC(C)O (configuration not stated)
> 46 µM | CC(CCc1ccc(O)cc1)NCC(O)c1ccc(O)cc1.Cl (configuration not stated)
> 46 µM | CN(C)CCOC(c1ccccc1)c1ccccc1
> 46 µM | O=C(O)CCc1nc(-c2ccccc2)c(-c2ccccc2)o1
> 46 µM | COc1ccc(-c2noc(CC(=O)O)c2-c2ccc(OC)cc2)cc1
> 46 µM | Cc1cc(C)c(C=C2C(=O)Nc3ccccc32)[nH]1
> 46 µM | NCCS(=O)(=O)O
> 46 µM | CC1=C(C/C=C(\C)CCC[C@H](C)CCC[C@H](C)CCCC(C)C)C(=O)c2ccccc2C1=O
> 46 µM | Cc1ccccn1
> 46 µM | Cc1ccc(N(CC2=NCCN2)c2cccc(O)c2)cc1

Structure (SMILES) | IC50
Nc1ccccc1C(=O)O | > 46 µM
O=C1CN=C(c2ccccc2)c2cc(Cl)ccc2N1CC1CC1 | > 46 µM
CN(C)C(Cc1ccccc1)c1ccccc1 (configuration not stated) | > 46 µM
CCC1(c2ccccc2)C(=O)NC(=O)NC1=O | > 46 µM
CC[n+]1c(-c2ccccc2)c2cc(N)ccc2c2ccc(N)cc21.[Br-] | > 46 µM
C[C@]12CCC(=O)C=C1C=C[C@@H]1[C@@H]2CC[C@@]2(C)[C@H]1CC[C@@]2(O)CCC(=O)[O-].[K+] | > 46 µM
O=C(O)c1ccccc1O.Oc1cccc2cccnc12 | > 46 µM
C[N+](C)(C)CCCCCCCCCC[N+](C)(C)C.[Br-].[Br-] | > 46 µM
COC(C)(C)CCCC(C)C/C=C/C(C)=C/C(=O)OC(C)C (configuration not stated) | > 46 µM
C=C[C@H]1C[N@@]2CC[C@H]1C[C@H]2[C@H](OC(=O)OCC)c1ccnc2ccc(OC)cc12 | > 46 µM
CCN(CC)CCOC(=O)c1cccnc1.O=C(O)CC(O)(CC(=O)O)C(=O)O | > 46 µM
CCC(C(N)=O)N1CCCC1=O (configuration not stated) | > 46 µM
O=[C@](N[C@@H](C)CO)[C@@H](C4)C=C(C2=C1C(C3)=CNC1=CC=C2)[C@]3([H])N4C | > 46 µM
NC(=O)CS(=O)C(c1ccccc1)c1ccccc1 (configuration not stated) | > 46 µM
CCC1C(C)=NN=C(c2ccc(OC)c(OC)c2)c2cc(OC)c(OC)cc21 (configuration not stated) | > 46 µM
CNC(C)C(O)c1ccc(O)cc1.Cl (configuration not stated) | > 46 µM
C[C@]12CC[C@H]3[C@@H](CCC4=C(O)C(=O)CC[C@@H]43)[C@@H]1CC[C@@H]2OC(=O)CCC1CCCC1 | > 46 µM
O=C([C@@H]([C@]4=CC=CC=C4)CO)O[C@@H]2C[C@@H]3[C@H]1O[C@H]1[C@@H]([N@+](C)3C)C2 | > 46 µM
CC[C@H]1OC(=O)C[C@@H](O)[C@H](C)[C@@H](O[C@@H]2O[C@H](C)[C@@H](O[C@H]3C[C@@](C)(O)[C@@H](O)[C@H](C)O3)[C@H](N(C)C)[C@H]2O)[C@@H](CC=O)C[C@@H](C)C(=O)/C=C/C(C)=C/[C@@H]1CO[C@@H]1O[C@H](C)[C@@H](O)[C@@H](OC)[C@H]1OC.O=C(O)[C@H](O)[C@@H](O)C(=O)O | > 46 µM
NC1=NC(=O)N2CC12 (configuration not stated) | > 46 µM
CC(CCc1ccccc1)NC(C)C(O)c1ccc(O)cc1 (configuration not stated) | > 46 µM
CC(C)C[C@H](CN)CC(=O)O | > 46 µM
CCOc1ccccc1O[C@H](c1ccccc1)[C@H]1CNCCO1.CS(=O)(=O)O | > 46 µM
[H][C@]1(CC3)C[C@@H](OC(C(C5=CC=CC=C5)(O)C4=CC=CC=C4)=O)C[C@]3([H])[N@+]21CCCC2.[Cl-] | > 46 µM
NCC[C@H](O)C(=O)N[C@@H]1C[C@H](N)[C@@H](O[C@H]2O[C@H](CN)CC[C@H]2N)[C@H](O)[C@H]1O[C@H]1O[C@H](CO)[C@@H](O)[C@H](N)[C@H]1O.O=S(=O)(O)O | > 46 µM
